The text below walks through data of PubChem BioAssay AID1996.

Converted amounts (≈) assume the structure as drawn.

As usually defined, the kinetic solubility is the concentration staying in solution when a stock, usually in DMSO, is diluted into the medium.

For the data set the following is noted: buffer; pH 7.4; 200.0 µM.
In turn, `CN1CCN(Cc2nc3ccccc3n2C)CC1CCO` (centres undefined) came in with a solubility (kinetic) of 34.3 µg/mL (≈ 119 µM). The result for `CCN(C(=O)c1ccc(Cl)c([N+](=O)[O-])c1)c1ccccc1` reads 35.8 µg/mL (≈ 117 µM). In turn, `Cc1nc2ccccc2c(=O)n1Cc1ccco1` had a solubility (kinetic) above 36 µg/mL. As for `CCN(CC(=O)NC1CCS(=O)(=O)C1)S(=O)(=O)c1ccc(Br)cc1` (centres undefined), the solubility (kinetic) is above 65.9 µg/mL. In turn, `Cc1cccc(C(C)C)c1NC(=O)c1cc2ccccc2o1` came in with a solubility (kinetic) of 6.1 µg/mL (≈ 20.8 µM). The molecule `O=C1CN(O)C(c2ccccc2)=c2cc(Cl)ccc2=N1` yielded a kinetic solubility of 37.9 µg/mL (≈ 132 µM). `O=C(NCC1CCCO1)c1csc(Nc2cccc3ccccc23)n1` (centres undefined) gave a kinetic solubility of 28.5 µg/mL (≈ 80.6 µM). `c1ccc(N2CCOCCOCCOCCOCC2)cc1` returned a kinetic solubility above 44.3 µg/mL. `CN1CCN(C=Nc2nc3ccccc3nc2N2CCCC2)CC1`: the solubility (kinetic) was above 48.7 µg/mL. Take `CCOc1ccc(C(=O)N[C@H](C(=O)Nc2ccc(S(=O)(=O)Nc3nccs3)cc2)C(C)C)cc1`: the solubility (kinetic) is 62.3 µg/mL (≈ 124 µM). Regarding `Cc1cc(OCC(=O)NC2CC2)c2c(C)cc(=O)oc2c1`, the kinetic solubility is above 43.1 µg/mL. Consider `O=C1c2cccc3cccc(c23)C(=O)N1c1cccc(O)c1`, for which the solubility (kinetic) was 1.3 µg/mL (≈ 4.49 µM). Molecule `Cc1cccc(OCC(=O)Nc2ccccc2F)c1` displayed a solubility (kinetic) of 13.4 µg/mL (≈ 51.7 µM). The result for `CCOC(=O)C1(Cc2cccc(F)c2)CCN(C(=O)c2ccoc2C)CC1` reads 52.2 µg/mL (≈ 140 µM). Molecule `O=C1CCC([N+](=O)[O-])C(c2cccc([N+](=O)[O-])c2)N1` (centres undefined) showed a solubility (kinetic) above 39.8 µg/mL.

`Cc1nc2sc3c(c2c(=O)n1NC(=O)CCl)CCCC3` had a solubility (kinetic) above 46.8 µg/mL. The result for `O=C(Oc1ccc(C(=S)N2CCOCC2)cc1Cl)c1ccccc1F` reads 9.9 µg/mL (≈ 26.1 µM). `N/C(CSc1ccccn1)=N\OCc1c(Cl)cccc1Cl` displayed a solubility (kinetic) of 29 µg/mL (≈ 84.7 µM). Turning to `O=C1Nc2ccccc2N2CCCC12` (centres undefined), the solubility (kinetic) was 27.5 µg/mL (≈ 146 µM). Molecule `O=c1cc(NCc2ccccc2)[nH]c(=O)[nH]1` displayed a kinetic solubility above 32.6 µg/mL. `COc1ccc([N+](=O)[O-])cc1NC(=O)Cc1noc2ccccc12`: the solubility (kinetic) amounted to 0.3 µg/mL (≈ 0.917 µM). On to `Cc1ccc(CNC(=O)c2cccnc2)cc1`, for which the solubility (kinetic) was above 33.9 µg/mL. With `Cc1ccc(C)c(NC(=S)NCCCN2CCOCC2)c1`, the kinetic solubility was above 46.1 µg/mL.

`Cc1cc(C)c2c(N)c(C(=O)Nc3ccccc3F)sc2n1`: the kinetic solubility came out at 0.4 µg/mL (≈ 1.27 µM). The molecule `O=C(CNC(=O)c1ccccc1F)OCC(=O)c1c[nH]c2ccccc12` came in with a kinetic solubility of 43 µg/mL (≈ 121 µM). As for `Cl.O=C1CCC(c2ccccc2)(C2CCN(Cc3ccccc3)CC2)C(=O)N1` (centres undefined), the solubility (kinetic) was 51.4 µg/mL.

For the molecule `Clc1ccc(-c2nc3cc(CN4CCCCC4)ccc3o2)cc1`, the kinetic solubility was 23.1 µg/mL (≈ 70.7 µM).

In turn, `COc1cccc(C(=O)Nc2ccccc2N2CCN(C(=O)c3ccccc3)CC2)c1` registered a kinetic solubility of 15 µg/mL (≈ 36.1 µM). The molecule `O=C(/C=C/NCc1cccnc1)C(F)(F)C(F)(F)F` showed a kinetic solubility above 42 µg/mL. The result for `COc1ccc(N2CCN(C(=O)c3cc4ccccc4o3)CC2)cc1` reads below 0.4 µg/mL; that for `COC(=O)c1ccc(OCC2NCCc3cc(OC)c(OC)cc32)cc1` (centres undefined), above 53.6 µg/mL; that for `CCN(CC(=O)N1CCCCCC1)S(=O)(=O)c1ccc(C)cc1`, above 50.8 µg/mL. Molecule `O=[N+]([O-])c1cccnc1Oc1ccc(OCc2ccccc2)cc1` displayed a solubility (kinetic) below 0.3 µg/mL. `CC1CCc2onc(C(=O)NCc3ccco3)c2C1` (centres undefined) had a solubility (kinetic) of 22.6 µg/mL (≈ 86.8 µM). The molecule `COc1ccc(Nc2nccc3c2ncn3C)cc1` showed a kinetic solubility above 38.1 µg/mL. The figure for `O=C(c1cc(Cl)ccc1Cl)N1CCN(Cc2ccccc2)CC1` is above 52.4 µg/mL. `CCOC(=O)c1csc(N)c1-c1ccc([N+](=O)[O-])cc1` had a solubility (kinetic) of 5.5 µg/mL (≈ 18.8 µM). Molecule `O=C(/C=C/c1ccc(F)cc1)Nc1cccc(S(=O)(=O)N2CCOCC2)c1` yielded a solubility (kinetic) of 13.9 µg/mL (≈ 35.6 µM). Turning to `Cc1ccc(C)c(NC2=C(Cl)C(=O)OC2OC(C)C)c1` (centres undefined), the solubility (kinetic) is 10.8 µg/mL (≈ 36.5 µM). `CCOC(=O)/C(=C/Nc1ccc(F)c(F)c1)[N+](=O)[O-]`: the kinetic solubility was above 40.8 µg/mL.

`CCC(C)(NC(=O)c1ccc2c(c1)OCO2)C(=O)NC1CCCCC1` (centres undefined) returned a solubility (kinetic) above 52 µg/mL.

`Cn1c(N)c(C(=O)Nc2cccc(Cl)c2)c(=O)n(C)c1=O` returned a solubility (kinetic) of 2.5 µg/mL (≈ 8.1 µM). The figure for `O=C(NCc1ccccc1)C1CC(=O)N(C2CCCCC2)C1` (centres undefined) is above 45.1 µg/mL; for `O=C(Nc1ccccc1-c1ccccc1)C1CCCC1` it is 32.4 µg/mL (≈ 122 µM); for `CCCNC(=O)Cn1c(=O)n(C)c2ccccc21` it is above 37.1 µg/mL. The figure for `CCOC(=O)C1=C(C)NC(C)=C(C(=O)OCC)C1c1ccco1` is 8.8 µg/mL (≈ 27.6 µM); for `Cc1ccc(NC(=O)CCc2ccc(C)o2)c(Br)c1` it is 4.2 µg/mL (≈ 13 µM); for `CC(=O)c1sccc1NC(=O)CC(C)(C)CC(=O)O` it is 32.5 µg/mL (≈ 115 µM). Consider `CCOc1ccc2[nH]c3c(NCCc4ccc(OC)c(OC)c4)ncnc3c2c1`, for which the solubility (kinetic) turned out to be 5.9 µg/mL (≈ 15 µM). The molecule `Cc1ccc(OCC(=O)NCCNC(=O)c2ccccn2)cc1` had a kinetic solubility of 46.9 µg/mL (≈ 150 µM).

For the molecule `Cc1onc(-c2ccccc2Cl)c1C(=O)Nc1ccccc1O`, the kinetic solubility stood at 17.2 µg/mL (≈ 52.3 µM). Molecule `CN(Cc1ccc(F)cc1)C(=O)c1ccc2c(c1)NC(=O)CS2` registered a solubility (kinetic) above 49.6 µg/mL. Molecule `Nc1cc(Oc2ccc(Cl)cc2Cl)nc(N)n1` showed a kinetic solubility of 39.5 µg/mL (≈ 146 µM). `COc1ccccc1C(=O)NC(=O)CSc1nnc2ccccn12` gave a solubility (kinetic) above 51.4 µg/mL.

In turn, `COc1cc2nc(-c3ccccc3C)oc(=O)c2cc1OC` showed a solubility (kinetic) below 0.6 µg/mL.

As for `O=C(NCCCN1CCCC1)Nc1ccc(F)cc1`, the kinetic solubility came out at 35.2 µg/mL (≈ 133 µM). On to `CCOC(=O)c1ncccc1NC(=O)CC(=O)Nc1cccnc1C(=O)OCC`, for which the kinetic solubility was found to be 58.2 µg/mL (≈ 145 µM). The result for `COCCNC(=S)N1CCN(Cc2ccc3c(c2)OCO3)CC1` reads 47 µg/mL (≈ 139 µM); that for `CC(C)(C)c1ccc(C(CC(=O)O)NC(=O)Cc2ccccc2)cc1` (centres undefined), 49.3 µg/mL (≈ 145 µM); that for `CC1CCN(C(=S)NC(=O)c2ccco2)CC1`, above 37.8 µg/mL. The result for `FC(F)(F)c1cccc(CN2CCSCC2)c1` reads below 0.6 µg/mL; that for `O=C(CCSCc1ccc(Cl)cc1)NCc1cccs1`, 28.3 µg/mL (≈ 86.8 µM); that for `CCCSc1nc2sc3c(c2c(=O)[nH]1)CC(C)(CC)OC3` (centres undefined), 1.5 µg/mL (≈ 4.62 µM).

In turn, `CCN1CCCC1CNS(=O)(=O)c1ccc(F)c(Cl)c1` (centres undefined) returned a solubility (kinetic) of 44.2 µg/mL (≈ 138 µM).

In turn, `COc1ccccc1CNc1cc(C)ccn1` came in with a kinetic solubility of 28.8 µg/mL (≈ 126 µM). The figure for `CN1CCN(c2ccc(S(=O)(=O)N3CCOCC3)cc2NC(=O)CSCc2ccccc2)CC1` is above 75.7 µg/mL; for `CCS(=O)(=O)c1ccc(O)c(NC(=O)c2cc(-c3ccccn3)nc3ccccc23)c1` it is above 65 µg/mL. In turn, `COc1ccc(-n2ccnc2)cc1` showed a solubility (kinetic) above 26.1 µg/mL. `O=C(CCC(=O)OCC(F)(F)C(F)F)Nc1ccccc1F` showed a solubility (kinetic) above 48.8 µg/mL. In turn, `O=C(O)c1cc(=O)[nH]c2c(Cl)cccc12` returned a kinetic solubility above 33.5 µg/mL. `O=C(Nc1ccc2c(c1)C(=O)OC2)c1ccc(F)cc1F` yielded a kinetic solubility of 2.3 µg/mL (≈ 7.95 µM). Take `NC(=O)CSc1nc2ccccc2c(=O)n1Cc1ccccc1`: the kinetic solubility came to 2.5 µg/mL (≈ 7.68 µM). The figure for `O=C(c1ccccc1)N1CCn2c1nc1ccccc12` is 9.2 µg/mL (≈ 34.9 µM); for `N#CCCN(C(=S)NC(=O)C1CCCCC1)c1ccccc1F` it is above 50 µg/mL. The molecule `O=C(NC(=S)Nc1cccc2ncccc12)c1ccccc1` showed a solubility (kinetic) of 2.7 µg/mL (≈ 8.78 µM).

On to `CC(=O)Oc1ccc2c(=O)oc(-c3ccccc3)nc2c1`, for which the kinetic solubility worked out at 3.1 µg/mL (≈ 11 µM). The figure for `C/C(=C\C(=O)Nc1cscc1C)C(=O)O` is 28.2 µg/mL (≈ 125 µM); for `Cn1cnnc1SCC(=O)NC1CCCCCC1` it is above 40.3 µg/mL; for `OCC(O)CN1CCCC1` (centres undefined) it is 21.4 µg/mL (≈ 147 µM).

Consider `O=C(/C=C/c1cccc(Cl)c1)NCCCN1CCOCC1`, for which the solubility (kinetic) was above 46.3 µg/mL.

In turn, `COCCNC(=O)Cn1cc(/C=C(\C#N)C(=O)NC2CC2)c2ccccc21` gave a kinetic solubility above 55 µg/mL.

Regarding `Cc1cc(=O)[nH]c(SCC(=O)NCC2CCCCC2)c1C#N`, the kinetic solubility was above 47.9 µg/mL. The figure for `COP(=O)(NC(=O)C(Cl)(Cl)Cl)OC` is above 40.6 µg/mL; for `O=S(=O)(c1ccc(=S)[nH]c1)N1CCCCC1` it is 21.9 µg/mL (≈ 84.8 µM); for `O=C(c1ccccc1)N1CCSc2sccc2C1=O` it is 37.5 µg/mL (≈ 130 µM). Molecule `O=C1CSC(c2ccc([N+](=O)[O-])cc2)N1c1ccc(O)cc1` (centres undefined) had a kinetic solubility of 46.4 µg/mL (≈ 147 µM).

`CC(=O)C1=C(C)NC2=C(C(=O)CC(C)(C)C2)C1C` (centres undefined): the kinetic solubility was above 37.1 µg/mL. For `Cc1[nH]n2cnnc2c(=O)c1Br.O=S(=O)(O)O`, the kinetic solubility was above 49.1 µg/mL.

As for `COc1ccccc1N1C(=O)C(Cl)=C(N2CCCC2)C1=O`, the solubility (kinetic) was 9.4 µg/mL (≈ 30.6 µM). Molecule `CCCCOCCCNC(=O)N[C@H](C(=O)OC)C(C)CC` (some centres undefined) had a kinetic solubility above 45.4 µg/mL.

In the case of `Cc1cccn2cc(-c3cc4ccccc4oc3=O)nc12`, the kinetic solubility amounted to 0.6 µg/mL (≈ 2.17 µM). Consider `CCN1CCN(C(=O)C(Cc2ccccc2)NC(=O)c2ccc(Cl)c(S(=O)(=O)N(C)C)c2)CC1` (centres undefined), for which the kinetic solubility is above 76.1 µg/mL.

As for `NC(=O)c1ccc(NC(=O)COC(=O)CC2CC3CCC2C3)cc1` (centres undefined), the solubility (kinetic) stood at 13 µg/mL (≈ 39.3 µM).

Molecule `NC(=NC(=O)c1cccc(C(F)(F)F)c1)c1ccc(C(F)(F)F)cn1` showed a solubility (kinetic) of 0.9 µg/mL (≈ 2.49 µM). As to `O=C1CN(C(=O)COC(=O)[C@@H]2CCCN2S(=O)(=O)c2ccc(Cl)cc2)c2ccccc2N1`, the kinetic solubility was determined as 59.1 µg/mL (≈ 124 µM).

The molecule `CC(C)CC(=O)Nc1ncc([N+](=O)[O-])s1` had a solubility (kinetic) above 34.4 µg/mL.

In turn, `COc1ccc(NC(=O)Nc2cnccn2)cc1OC` gave a kinetic solubility above 41.1 µg/mL. The figure for `O=Cc1c(SCCO)nc2ccccn2c1=O` is 17.6 µg/mL (≈ 70.3 µM). `NS(=O)(=O)Cc1noc2ccccc12`: the solubility (kinetic) is above 31.8 µg/mL. On to `CC(C)c1ccc(NC(=O)C2CC3CCC2C3)cc1` (centres undefined), for which the solubility (kinetic) came to 2.1 µg/mL (≈ 8.16 µM).

Consider `COc1ccc(N2CC(C(=O)NCc3ccco3)CC2=O)cc1` (centres undefined), for which the solubility (kinetic) was 32.2 µg/mL (≈ 102 µM). The figure for `Cc1cc(=O)c(C(=O)O)nn1-c1ccccc1Cl` is above 39.7 µg/mL.

On to `O=c1c2sccc2[nH]c(=S)n1-c1ccccc1`, for which the solubility (kinetic) was 38.5 µg/mL (≈ 148 µM). Molecule `Cc1cc(C)c2c(N)c(C(=O)Nc3ccc([N+](=O)[O-])cc3)sc2n1` gave a solubility (kinetic) below 0.2 µg/mL.
